Patent US12702657B2, “Treatment and prevention of dengue disease” (Janssen Pharmaceuticals, Inc., priority 2019, dated 2026)

Tests used:
DENV-2/16681 = assay: Pre-exposure prophylaxis in non-human primate model against DENV-2/16681; type: in vivo, rhesus monkeys (Macaca mulatta); settings: for reduction in median peak DENV RNA compared with vehicle, significance / median reduction in DENV peak RNA levels compared with vehicle control: Bayesian nonlinear dose-response model; for onset of DENV RNA and peak RNA / DENV RNA throughout the study period (up to day 28): day -1 to day 10; for onset of DENV RNA and peak RNA: in some animals; for median reduction in DENV peak RNA levels compared with vehicle control: estimated
Experimental: Compound (a) was tested in a non-human primate (NHP) model against DENV-2/16681. The setup of the experiment was designed as a pre-exposure prophylaxis (PreP) study. Oral administration of compound (a) started one day before experimental infection (day −1) and continued with daily administrations until 10 days post-infection. On day 0, the animals were infected by intradermal inoculation with 100 TCID50 of DENV-2/16681 virus in a total volume of 0.1 mL (FIG. 11).
The rhesus monkeys were divided in 7 groups representing the following treatment regimens: • (i) Vehicle 100% PEG400 (n=5) • (ii) Group 1: 0.01 mg/kg/dose, q.d. (n=3), • (iii) Group 2: 0.18 mg/kg/dose, q.d. (n=3), • (iv) Group 3: 3 mg/kg/dose, q.d. (n=3), • (v) Group 4: 0.024 mg/kg/dose, q.d. (n=4), • (vi) Group 5: 0.09 mg/kg/dose, q.d. (n=4), • (vii) Group 6: 0.93 mg mg/kg/dose, q.d. (n=4).
The antiviral activity of compound (a) in a prophylactic setting is being assessed in DENV-2/16681 infected rhesus monkeys (Macaca mulatta). Blood samples were taken on a daily basis from day 0 until day 11, and on day 14 and day 28. DENV RNA was measured using real-time qPCR as described by Santiago et al. (2013). Results from compound (a) doses of 0.01, 0.024, 0.09, 0.18, 0.93 and 3 mg/kg, administered once daily from day 1 before infection until day 10 post infection, are shown in FIGS. 12A and B.
Based on a Bayesian nonlinear dose-response statistical model, the peak viral load reduction compared with vehicle was estimated for each dose group. […] A dose dependent median reduction in DENV peak RNA levels of 0.78, 1.91, 4.73 and 6.76 log10 genome copy equivalents (GCE) per milliliter (GCE/mL) plasma compared with vehicle control was estimated with the 0.09, 0.18, 0.93 and 3 mg/kg doses, respectively (Table 1).

DENV-2/Rega lab strain = assay: AG129 mouse model, low viral input (10^2 PFU), PrEP, post-exposure prophylaxis and treatment (delayed treatment start); type: in vivo, AG129 mice; settings: 30 mg/kg/dose b.i.d.; for viral load at viral rebound: start 2 days after infection (group 4)
Experimental: AG129 mice, age- and sex-matched (6 to 9 weeks of age), were used to assess the activity of compound (b) on viral RNA levels in the serum of the mice. The animals were infected intraperitoneally (i.p.) with 1×10^2 PFU DENV-2/Rega lab strain and treated for five consecutive days with compound (b) which was administered by oral gavage. Compound (b) was administered every 12 hours (twice daily or b.i.d.).
The mice were divided in six treatment groups (n=8/group) representing the following treatment regimens: • (i) Vehicle 80%/20% PEG400/H2O (group 1), • (ii) 30 mg/kg/dose compound (b) b.i.d.: first administration 1 hour before infection (group 2), • (iii) 30 mg/kg/dose compound (b) b.i.d., first administration 1 day after infection (group 3), • (iv) 30 mg/kg/dose compound (b) b.i.d., first administration 2 days after infection (group 4), • (v) 30 mg/kg/dose compound (b) b.i.d., first administration 3 days after infection (group 5), • (vi) 30 mg/kg/dose compound (b) b.i.d., first administration 4 days after infection (group 6), • (vii) 30 mg/kg/dose compound (b) b.i.d., first administration 5 days after infection (group 7), • (viii) 30 mg/kg/dose compound (b) b.i.d., first administration 6 days after infection (group 8).
Blood for viral RNA load detection was collected from mice in two alternating sub-groups. Each sub-group comprised half of the mice (n/2=4) from each of the treatment groups (i) to (viii). Blood was collected from a first sub-group at days 2, 4, 6, 8 and 12 p.i. and from a second sub-group at days 3, 5, 7, 9 and 14 p.i. At day 12 p.i., half of the mice in each treatment group (n=4/group) were sacrificed. The remaining mice in each treatment group (n=4/group) were sacrificed at day 14 p.i. (FIG. 17Y).

DENV-2 Rega lab strain = assay: Lethal DENV challenge study (survival study) in AG129 mice with 4G2 antibody-dependent enhancement; type: in vivo; settings: monitored max. 25 days, 10^6 PFU
Experimental: In the lethal DENV challenge study (or survival study), antibody-dependent-enhancement (ADE) induced dengue disease is imitated by injecting AG129 mice (n=10 per group) i.p. with Anti-Flavivirus Group Antigen Antibody, clone D1-4G2-4-15 (‘4G2’; Millipore), one day prior to challenge with DENV-2 Rega lab strain (1×10^6 PFU, i.p.). Animals were treated by administering compound (b) by oral gavage with a first administration at one hour prior to infection. The treatment continued for five consecutive days with one administration of compound (b) every 12 hours (twice daily or b.i.d.). (FIG. 15X).
The mice were divided in several groups (n=8/group for the viremia study and n=10/group for the survival study) representing the following treatment regimens: • (i) vehicle, 80%/20% PEG400/H2O • (ii) compound (b): 30 mg/kg/dose b.i.d. • (iii) compound (b): 10 mg/kg/dose b.i.d. • (iv) compound (b): 3 mg/kg/dose b.i.d. • (v) compound (b): 1 mg/kg/dose b.i.d.
Next, the impact of compound (b) was assessed on virus-induced disease and mortality when dosed (orally, b.i.d.) for just 5 consecutive days starting at the day of infection (survival study). Animals were monitored for a maximum period of 25 days. All but one (19 of 20) vehicle-treated mice had to be euthanized. At a dose of 30 mg/kg, 90% of the mice survived the viral challenge and at doses of 10, 3 and 1 mg/kg, the survival rate was respectively 80%, 85% and 75% (FIG. 15Z).

[1] = first administration 4 days after infection (group 6)
[2] = first administration 5 days after infection (group 7)

COc1cc(NC(C(=O)c2c[nH]c3ccc(OC(F)(F)F)cc23)c2ccc(Cl)cc2OC)cc(S(C)(=O)=O)c1 (centres unmarked) [compound (a)]
reduction in median peak DENV RNA compared with vehicle, significance (DENV-2/16681; 0.01 mg/kg q.d. oral): No statistically significant reduction
reduction in median peak DENV RNA compared with vehicle, significance (DENV-2/16681; 0.024 mg/kg q.d. oral): No statistically significant reduction
onset of DENV RNA and peak RNA (DENV-2/16681; 0.09 mg/kg q.d. oral): delayed onset of DENV RNA and peak RNA
median reduction in DENV peak RNA levels compared with vehicle control (DENV-2/16681; 0.09 mg/kg q.d. oral): 0.78 log10 GCE/mL
onset of DENV RNA and peak RNA (DENV-2/16681; 0.18 mg/kg q.d. oral): delayed onset of DENV RNA and peak RNA
median reduction in DENV peak RNA levels compared with vehicle control (DENV-2/16681; 0.18 mg/kg q.d. oral): 1.91 log10 GCE/mL
DENV RNA throughout the study period (up to day 28) (DENV-2/16681; 0.93 mg/kg q.d. oral): No DENV RNA was detectable
median reduction in DENV peak RNA levels compared with vehicle control (DENV-2/16681; 0.93 mg/kg q.d. oral): 4.73 log10 GCE/mL
DENV RNA throughout the study period (up to day 28) (DENV-2/16681; 3 mg/kg q.d. oral): No DENV RNA was detectable
median reduction in DENV peak RNA levels compared with vehicle control (DENV-2/16681; 3 mg/kg q.d. oral): 6.76 log10 GCE/mL

COc1cc(NC(C(=O)N2CCc3ccc(OC(F)(F)F)cc32)c2ccc(Cl)cc2)cc(OCCCC(=O)O)c1 (centres unmarked) [compound (b)]
viral RNA in the serum (DENV-2/Rega lab strain; first administration 1 hour before infection (group 2)): undetectable levels
viral RNA in the serum (DENV-2/Rega lab strain; first administration 1 day after infection (group 3)): undetectable levels
viral RNA in the serum (DENV-2/Rega lab strain; first administration 2 days after infection (group 4), except two measurements): undetectable levels
viral load until day 9 post infection (DENV-2/Rega lab strain; first administration 3 days after infection (group 5)): undetectable viral load
peak viral load reduction (DENV-2/Rega lab strain; [1]): 1.1 log10 copies/mL
time to undetectable viral load compared with vehicle treated mice (DENV-2/Rega lab strain; [1]): undetectable viral load was reached earlier
peak viral load reduction (DENV-2/Rega lab strain; [2]): 0.7 log10 copies/mL
time to undetectable viral load compared with vehicle treated mice (DENV-2/Rega lab strain; [2]): undetectable viral load was reached earlier
time to undetectable viral load compared with vehicle treated mice (DENV-2/Rega lab strain; first administration 6 days after infection (group 8)): undetectable viral load was reached earlier
viral load at viral rebound (DENV-2/Rega lab strain; day 9 post infection): 3.0 log10 copies/mL
viral load at viral rebound (DENV-2/Rega lab strain; day 14 post infection): 4.7 log10 copies/mL
viral RNA detected (DENV-2/Rega lab strain; start 3 days after infection (group 5), day 12 post infection): 5.0 log10 copies/mL
survival rate (DENV-2 Rega lab strain; 1 mg/kg b.i.d. orally for 5 days): 75%
survival rate (DENV-2 Rega lab strain; 3 mg/kg b.i.d. orally for 5 days): 85%
survival rate (DENV-2 Rega lab strain; 10 mg/kg b.i.d. orally for 5 days): 80%
survival rate (DENV-2 Rega lab strain; 30 mg/kg b.i.d. orally for 5 days): 90%
